Results: PMC4645160, “Targeting kinases with anilinopyrimidines: discovery of N-phenyl-N’-[4-(pyrimidin-4-ylamino)phenyl]urea derivatives as selective inhibitors of class III receptor tyrosine kinase subfamily” (Scientific Reports, 2015)

Experiments:
[1] = test system: Lewis Lung Carcinoma (LLC); assay: In vivo anticancer activity toward Lewis Lung Carcinoma (LLC); details: LLC in C57BL mice, 27 at 7.5 mg/kg, CDDP at 1.5 mg/kg
Source text: (§1) Besides, it was as cytotoxic as 19 towards cancer cells while showing a more favorable selectivity index. On these basis, compound 27 was chosen for in vivo experiments against a syngeneic murine solid tumor model, the murine Lewis Lung Carcinoma (LLC). The tumor growth inhibition induced by 27 was compared with that promoted by cisplatin (CDDP), the most common chemotherapeutic drug used in the treatment of lung cancers. Nine days after tumor inoculation, tumor-bearing mice were randomized into vehicle control and treatment groups (8 mice per group). Control mice received the vehicle (0.2%v/v EtOH and 99.8%v/v of a saline solution), whereas treated groups received daily doses of 27 (7.5 mg · kg^−1 in the vehicle solution composed of 0.2%v/v EtOH and 99.8%v/v of saline solution) or CDDP (1.5 mg · kg^−1 in saline solution). Tumor growth was estimated at day 20 (Fig. 7a). As an indication of the adverse side effects, changes in the body weights of tumor-bearing mice were monitored at day 1 and daily from day 9.
Figure 7 In vivo testing of compound 27. Lewis lung carcinoma (LLC) was implanted i.m. (2 · 10^6 cells inoculum) into the right hind leg of 8-week old imbred C57BL mice. Nine days after tumor inoculation (palpable tumor), tumor-bearing mice were randomized into vehicle control and treatment groups (8 mice per group). Compound 27 was dosed daily at 7.5 mg/kg ip and CDDP was dosed daily at 1.5 mg/kg ip. At day 20, animals were sacrificed (i.e., before tumor can cause the animal discomfort), the legs were amputated at the proximal end of the femur, and the inhibition of tumor growth was determined according to the difference in weight of the tumor-bearing leg and the healthy leg of the animals expressed as % referred to the control animals. Control was constituted by vehicle (0.2%v/v EtOH and 99.8%v/v of saline solution). CDDP was used as positive reference. Both 27 and CDDP were administered at the highest not toxic doses (7.5 and 1.5 mg/kg, respectively), as determined by MTD studies. (a) Average tumor weight (g) after 20 days of treatment with control or compounds. (b) Percentage of reduction in tumor growth after 20 days of treatment with respect to control mice. (c) Body weight changes. The body weight changes of LLC bearing C57BL mice treated with vehicle or tested compounds. Each drug was administered daily after 9 days from the tumor cell inoculum. Weights were measured at day 1 and daily from day 9. Error bars indicate the standard deviation.
All studies involving animal testing were carried out in accordance with the ethical guidelines for animal research adopted by the University of Padua, acknowledging the Italian regulation (D.L.G.S. 116/92) and European Directive 86/609/EEC as to the animal welfare and protection and the related codes of practice. […]

[2] = Body weight changes of LLC bearing mice; type: in vivo; details: LLC bearing C57BL mice, 27 daily 7.5 mg/kg ip
Source text: as §1, with “Control mice received the vehicle (0.2%v/v EtOH and 99.8%v/v of a saline solution), whereas treated groups received daily doses of 27 (7.5 mg · kg^−1 in the vehicle solution composed of 0.2%v/v EtOH and 99.8%v/v of saline solution) or CDDP (1.5 mg · kg^−1 in saline solution). Tumor growth was estimated at day 20 (Fig. 7a).” left out
Figure 7 In vivo testing of compound 27. […] At day 20, animals were sacrificed (i.e., before tumor can cause the animal discomfort), the legs were amputated at the proximal end of the femur, and the inhibition of tumor growth was determined according to the difference in weight of the tumor-bearing leg and the healthy leg of the animals expressed as % referred to the control animals. […] Both 27 and CDDP were administered at the highest not toxic doses (7.5 and 1.5 mg/kg, respectively), as determined by MTD studies. […] Weights were measured at day 1 and daily from day 9. […]

[3] = test system: panel of 48 kinases; assay: KinomeScan primary screening (POC) at 10 μM; type: binding, human; details: POC values
Source text: Synthesized compounds were screened against a panel of 48 kinases selected within the ScanEDGE subset of DiscoverX (http://www.discoverx.com/services/drug-discovery-development-services/kinase-profiling/kinomescan/scanedge). The ScanEDGE includes 97 kinases and is an economical approach to assess compounds selectivity throughout the human kinome. All the wt-TKs along with some relevant mutants of Abl1 (T315I) and of EGFR (L858R and L858R/T790M) were chosen. The remaining 18 targets (3 Tyrosine Kinases-Like, TKLs; 15 Serine-Threonine Kinases, STKs) were selected among the remaining kinases in the ScanEDGE subset on the basis of their well established role in cancer (see Fig. S2 for a graphical representation of the selected kinases with reference to the kinome tree. Some references highlighting the role of each kinase in cancer are also reported in Table S3).
The compounds were evaluated using the KinomeScan™ platform (http://www.discoverx.com/services/drug-discovery-development-services/kinase-profiling/kinomescan), that measures the ability of the test compound to disrupt the complex between a high affinity ATP-mimic probe immobilized on a solid support and the kinase of interest. The KinomeScan is a very helpful technology for the fast and reliable screening of a number of compounds against a wide and customizable panel of kinases. Besides, it is not based on the use of hazardous radioactive ^32P-ATP and has a very low rate of false positive (<1%)[44]. The screening platform outputs a “Percent of Control” (POC) value, statistically correlated to the dissociation constant (Kd) value (http://www.discoverx.com/tools-resources/leadhunter-study-reports-data-analysis), for each pair of kinase/ligand. The POC is calculated as reported in equation (1):
Where: test compound signal = amount of kinase still binding the probe after treatment with test compound; negative control signal = amount of kinase still binding the probe after treatment with DMSO (100% control); positive control signal = amount of kinase still binding the probe after treatment with control compound (0% control).
The compounds were tested at high concentration (10 μM), in order to highlight not only the main target but also the off-targets. The results of the preliminary screening are reported as heat map (Fig. 4; see also Table S4 for all the measured values), in which the compounds are grouped on the basis of the 6 or 5 substituent at the pyrimidine ring.

SMILES | Inhibition of tumor growth (%) ([1]; daily ip from day 9, day 20, versus vehicle control) | Average tumor weight (mean±S.D., g) ([1]; daily ip from day 9, day 20) [g] | Body weight loss [2] [%] | Selectivity profile (kinases targeted) in primary screening [3]
O=C(CN1CCOCC1)Nc1cccc(-c2cc(Nc3ccc(NC(=O)Nc4ccccc4)cc3)ncn2)c1 [Compound 27] | 84.7 | 0.075 ± 0.03 | < 10 | 
O=C(Nc1ccccc1)Nc1ccc(Nc2cc(-c3ccccc3)ncn2)cc1 [Compound 19] |  |  |  | class III RTK
